Assay results published in patent US9663517B2, “Compositions and uses thereof” (Plexxikon Inc., priority 2009, dated 2017).

Assay: pKa of weakly basic centre
Assay type: physicochemical
Conditions: N-7 of the azaindole portion
Excerpt: Propane-1-sulfonic acid {3-[5-(4-chloro-phenyl)-1H-pyrrolo[2,3-b]pyridine-3-carbonyl]-2,4-difluoro-phenyl}-amide is characterized as having functionalities providing both weakly basic and weakly acidic centers which can form organic salt complexes, resulting in improved solubility. For example, the N-7 of the azaindole portion is weakly basic (pKa approximately 4-5) and can form an acid addition salt complex with an organic acid such as benzenesulfonic acid, methylsulfonic acid or toluenesulfonic acid, preferably methanesulfonic acid or toluenesulfonic acid. Such mesylate or tosylate salts provide advantage over the free base, such as an improved solubility, improved intrinsic dissolution rate, and lower melting point than the free base. The improved intrinsic dissolution rate provides an advantage in formulation of the salt, for example, formulation in an amorphous form by methods described in the above examples. The improved solubility provides more efficient and cost effective formulation, for example spray drying or microprecipitated bulk processing can be performed using far less solvent volumes due to the intrinsic solubility. Such advantages may also be provided by formation of the mesylate or tosylate salt in situ during the processing, for example the process of spray drying, solvent controlled precipitation, or pH controlled precipitation. […]

pKa: 4 to 5
Structure (SMILES): CCCS(=O)(=O)Nc1ccc(F)c(C(=O)c2c[nH]c3ncc(-c4ccc(Cl)cc4)cc23)c1F [Compound I, propane-1-sulfonic acid {3-[5-(4-chloro-phenyl)-1H-pyrrolo[2,3-b]pyridine-3-carbonyl]-2,4-difluoro-phenyl}-amide]
